These results are taken from patent US20240228463A1, “SODIUM CHANNEL INHIBITORS AND METHODS OF DESIGNING SAME” (Genentech, Inc., priority 2021, published 2024).

Structures are written as SMILES.

T1 sequence (Q15858 1-1977 isoform Q15858-3): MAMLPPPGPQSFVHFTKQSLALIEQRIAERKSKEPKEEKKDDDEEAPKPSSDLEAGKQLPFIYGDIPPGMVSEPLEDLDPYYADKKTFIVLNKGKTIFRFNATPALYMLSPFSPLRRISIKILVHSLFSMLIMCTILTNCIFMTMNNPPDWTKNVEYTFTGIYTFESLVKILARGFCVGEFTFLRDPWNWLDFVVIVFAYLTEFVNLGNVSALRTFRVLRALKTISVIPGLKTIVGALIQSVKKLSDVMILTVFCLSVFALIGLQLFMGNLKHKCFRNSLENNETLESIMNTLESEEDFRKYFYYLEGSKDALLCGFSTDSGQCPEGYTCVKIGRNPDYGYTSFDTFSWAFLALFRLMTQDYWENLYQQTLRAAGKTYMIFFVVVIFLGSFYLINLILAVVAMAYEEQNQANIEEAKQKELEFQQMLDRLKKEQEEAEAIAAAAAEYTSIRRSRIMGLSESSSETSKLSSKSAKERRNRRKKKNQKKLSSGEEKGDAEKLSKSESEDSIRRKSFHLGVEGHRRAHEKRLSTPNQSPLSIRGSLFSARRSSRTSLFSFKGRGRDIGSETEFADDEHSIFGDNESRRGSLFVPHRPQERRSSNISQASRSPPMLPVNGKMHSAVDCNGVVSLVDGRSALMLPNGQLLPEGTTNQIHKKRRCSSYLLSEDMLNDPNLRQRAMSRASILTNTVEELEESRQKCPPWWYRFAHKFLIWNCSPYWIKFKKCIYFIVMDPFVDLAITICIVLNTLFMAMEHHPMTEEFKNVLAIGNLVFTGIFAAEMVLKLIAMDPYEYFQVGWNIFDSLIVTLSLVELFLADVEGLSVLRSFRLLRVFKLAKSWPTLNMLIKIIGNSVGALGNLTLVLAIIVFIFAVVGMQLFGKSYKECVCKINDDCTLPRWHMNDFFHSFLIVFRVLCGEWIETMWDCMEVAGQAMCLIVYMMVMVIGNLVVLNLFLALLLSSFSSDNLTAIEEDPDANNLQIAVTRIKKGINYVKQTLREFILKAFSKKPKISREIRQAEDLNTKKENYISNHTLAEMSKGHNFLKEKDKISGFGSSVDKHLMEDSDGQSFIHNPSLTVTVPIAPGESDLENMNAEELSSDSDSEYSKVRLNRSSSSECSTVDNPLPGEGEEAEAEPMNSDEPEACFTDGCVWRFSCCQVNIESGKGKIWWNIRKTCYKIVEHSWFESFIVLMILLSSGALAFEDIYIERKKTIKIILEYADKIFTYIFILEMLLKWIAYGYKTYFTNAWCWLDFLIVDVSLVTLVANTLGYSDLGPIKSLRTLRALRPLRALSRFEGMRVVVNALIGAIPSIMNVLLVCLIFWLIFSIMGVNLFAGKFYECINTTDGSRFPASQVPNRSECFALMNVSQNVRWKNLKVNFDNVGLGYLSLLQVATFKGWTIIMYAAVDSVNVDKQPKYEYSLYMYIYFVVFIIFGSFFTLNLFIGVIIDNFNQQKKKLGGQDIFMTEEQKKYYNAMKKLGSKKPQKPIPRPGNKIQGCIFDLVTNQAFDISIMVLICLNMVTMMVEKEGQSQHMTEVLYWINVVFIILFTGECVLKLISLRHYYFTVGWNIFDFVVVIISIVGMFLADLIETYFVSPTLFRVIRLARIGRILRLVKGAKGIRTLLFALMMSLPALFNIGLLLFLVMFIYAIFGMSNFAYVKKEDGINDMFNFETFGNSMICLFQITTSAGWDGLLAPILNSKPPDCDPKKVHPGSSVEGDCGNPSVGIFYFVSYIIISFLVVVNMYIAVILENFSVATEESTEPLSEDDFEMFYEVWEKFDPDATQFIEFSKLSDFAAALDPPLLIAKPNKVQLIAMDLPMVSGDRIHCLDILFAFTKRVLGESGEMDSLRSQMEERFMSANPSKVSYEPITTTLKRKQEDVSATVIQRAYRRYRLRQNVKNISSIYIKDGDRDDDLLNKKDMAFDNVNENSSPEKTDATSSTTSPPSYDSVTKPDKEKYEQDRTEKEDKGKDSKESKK

One experiment has as its target T1, hNaV1.7 (Homo sapiens, UniProt Q15858).
T1 construct: expressed in transfected cells
Briefly: Patch voltage clamp electrophysiology (EP), Syncropatch 384PE, Nav1.7 in CHO cells.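 Further: Nav1.7 stably expressed from cDNA in CHO cells, holding potential of −50 mV kept for the entire experiment.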 It counts as cell-based. The settings on record: hNaV1.7 EP_SP, holding potential −50 mV, inhibition based on 7.5 min compound incubation. In general terms: Patch clamp records ionic current or voltage across a cell membrane.
Compound `COc1cc(-c2cccc(C(F)(F)F)c2)c(F)cc1N1C(=O)CO[C@@H]2CN(S(=O)(=O)Nc3noc4ccc(C5CC5)cc34)CC[C@H]21` (single isomer, unassigned) [Example 93] yielded an IC50 of 110 nM.

The same experiment, now with this note: holding potential −50 mV, inhibition based on 7.5 min compound incubation, read-out: hNaV1.7 EP_SP.
Regarding `O=C(NS(=O)(=O)N1CCC(CC2CNC2)CC1)c1cc(Cl)c(OCC2CCCC2)cc1F` [Example 40, N-((4-(azetidin-3-ylmethyl)piperidin-1-yl)sulfonyl)-5-chloro-4-(cyclopentylmethoxy)-2-fluorobenzamide 2,2,2-trifluoroacetate], the IC50 was determined as 59 nM.

Consider `O=C(NS(=O)(=O)c1ccc2ccccc2c1)c1cc(Cl)c(OCC2CCCC2)cc1F` [Example 290, 5-chloro-4-(cyclopentylmethoxy)-2-fluoro-N-(naphthalen-2-ylsulfonyl)benzamide], for which the IC50 stood at 760 nM. Turning to `CN(C)[C@H]1CCCC[C@@H]1Oc1ccc(S(=O)(=O)Nc2ccc(SCc3ccccc3Cl)cn2)c(F)c1` [Example 257, N-(5-((2-chlorobenzyl)thio)pyridin-2-yl)-4-(((1S,2S)-2-(dimethylamino)cyclohexyl)oxy)-2-fluorobenzenesulfonamide], the IC50 was 730 nM. As for `O=C(NS(=O)(=O)C1=Cc2ccccc2CC1)c1cc(Cl)c(OCC2CCCC2)cc1F` [Example 275, 5-chloro-4-(cyclopentylmethoxy)-N-((3,4-dihydronaphthalen-2-yl)sulfonyl)-2-fluorobenzamide], the IC50 is 510 nM. The same measure, in the same setting: to `O=C(NS(=O)(=O)N1CCC2CCNCC2C1)c1cc(Cl)c(OCC2CCCC2)cc1F` (centres unmarked) [Example 321, 5-chloro-4-(cyclopentylmethoxy)-2-fluoro-N-((octahydro-2,7-naphthyridin-2(1H)-yl)sulfonyl)benzamide] belongs 210 nM. For `NCC1CN(S(=O)(=O)NC(=O)c2cc(C3CC3)c(OCC3CCCC3)cc2F)CCO1` (centres unmarked) [Example 330, N-((2-(aminomethyl)morpholino)sulfonyl)-4-(cyclopentylmethoxy)-5-cyclopropyl-2-fluorobenzamide], the IC50 is 620 nM. Regarding `CN(C)[C@H]1CCCC[C@@H]1OC1CCN(S(=O)(=O)NC(=O)c2cc(C3CC3)c(OCC3CCCC3)cc2F)CC1` [Example 331, 4-(cyclopentylmethoxy)-5-cyclopropyl-N-((4-(((1S,2S)-2-(dimethylamino)cyclohexyl)oxy)piperidin-1-yl)sulfonyl)-2-fluorobenzamide], the IC50 was 140 nM. On the same count and under the same terms, to `O=C(NS(=O)(=O)c1ccc2c(c1)NCC2)c1cc(Cl)c(OCC2CCCC2)cc1F` [Example 282, 5-chloro-4-(cyclopentylmethoxy)-2-fluoro-N-(indolin-6-ylsulfonyl)benzamide] belongs 760 nM. For `C[C@@H]1C[C@H]1S(=O)(=O)NC(=O)c1cc(Cl)c(OCC2CCCC2)cc1F` (single isomer, unassigned) [Example 251], the IC50 is 16 nM. `NC1CN(S(=O)(=O)NC(=O)c2cc(Cl)c(OCC3CCCC3)cc2F)C1` [Example 233, N-((3-aminoazetidin-1-yl)sulfonyl)-5-chloro-4-(cyclopentylmethoxy)-2-fluorobenzamide]: the IC50 came to 870 nM. `CN1CC(OC2CCN(S(=O)(=O)NC(=O)c3cc(C4CCC4)c(OCC4CCCC4)cc3F)CC2)C1` [Example 7, 5-cyclobutyl-4-(cyclopentylmethoxy)-2-fluoro-N-((4-((1-methylazetidin-3-yl)oxy)piperidin-1-yl)sulfonyl)benzamide 2,2,2-trifluoroacetate]: the IC50 was 8 nM. As for `O=C(NS(=O)(=O)c1ccc(OCc2ccccc2)cc1F)c1cc(C2CC2)c(OCC2CCCC2)cc1F` [Example 70, N-((4-(benzyloxy)-2-fluorophenyl)sulfonyl)-4-(cyclopentylmethoxy)-5-cyclopropyl-2-fluorobenzamide], the IC50 stood at 60 nM. For `O=C(N[C@@H](C(=O)O)C1CCCCC1)c1cc(Cl)c(OCC2CCCC2)cc1F` [Example 107, (R)-2-(5-chloro-4-(cyclopentylmethoxy)-2-fluorobenzamido)-2-cyclohexyl-acetic acid], the IC50 amounted to 990 nM. On the same count and under the same terms, the value for `CC(C)S(=O)(=O)NC(=O)c1cc(Cl)c(OCC2CCCC2)cc1F` [Example 247, 5-chloro-4-(cyclopentylmethoxy)-2-fluoro-N-(isopropylsulfonyl)benzamide] was 52 nM. Same read-out and setting: the value for `CN(C)[C@H]1CCCC[C@@H]1Nc1ccc(S(=O)(=O)Nc2nccs2)c(F)c1` [Example 332, 4-(((1S,2S)-2-(dimethylamino)cyclohexyl)amino)-2-fluoro-N-(thiazol-2-yl)benzenesulfonamide] was 220 nM; that for `CCOc1ccc(S(=O)(=O)NC(=O)c2cc(Cl)c(OCC3CCCC3)cc2F)cn1` [Example 285, 5-chloro-4-(cyclopentylmethoxy)-N-((6-ethoxypyridin-3-yl)sulfonyl)-2-fluorobenzamide] was 350 nM. Consider `O=C(NS(=O)(=O)N1CC[C@H]2CCC[C@@H]21)c1cc(Cl)c(OCC2CCCC2)cc1F` (single isomer, unassigned) [Example 221], for which the IC50 amounted to 16 nM. `Cn1ccnc1COc1ccc(S(=O)(=O)NC(=O)c2cc(Cl)c(OCC3CCCC3)cc2F)cc1` [Example 312, 5-chloro-4-(cyclopentylmethoxy)-2-fluoro-N-((4-((1-methyl-1H-imidazol-2-yl)methoxy)phenyl)sulfonyl)benzamide]: the IC50 came out at 83 nM. On to `CN(C)C1CN(S(=O)(=O)NC(=O)c2cc(Cl)c(OCC3CCCC3)cc2F)C1` [Example 234, 5-chloro-4-(cyclopentylmethoxy)-N-((3-(dimethylamino)azetidin-1-yl)sulfonyl)-2-fluorobenzamide], for which the IC50 worked out at 340 nM. For `COC[C@@H](C)S(=O)(=O)NC(=O)c1cc(Cl)c(OCC2CCCC2)cc1F` (single isomer, unassigned) [Example 249], the IC50 was found to be 110 nM. Still for that read-out and setting: to `O=S(=O)(Nc1noc2cc(OCC3CCCC3)c(C3CC3)cc12)N1CCC(O[C@@H]2CCNC2)CC1` (single isomer, unassigned) [Example 91, 2,2,2-trifluoroacetate] belongs 790 nM.

As to `O=C(NS(=O)(=O)c1ccc(OCC(F)(F)F)cc1)c1cc(Cl)c(OCC2CCCC2)cc1F` [Example 287, 5-chloro-4-(cyclopentylmethoxy)-2-fluoro-N-((4-(2,2,2-trifluoro-ethoxy)phenyl)sulfonyl)benzamide], the IC50 came to 250 nM. Same read-out and setting: to `C[C@@H]1Cc2ccccc2N(S(=O)(=O)NC(=O)c2cc(Cl)c(OCC3CCCC3)cc2F)C1` (single isomer, unassigned) [Example 17] belongs 100 nM; to `O=C(NS(=O)(=O)c1ccc2c(c1)OCCCO2)c1cc(Cl)c(OCC2CCCC2)cc1F` [Example 289, 5-chloro-4-(cyclopentylmethoxy)-N-((3,4-dihydro-2H-benzo[b][1,4]dioxepin-7-yl)sulfonyl)-2-fluorobenzamide], 710 nM.

Regarding `CN(C)[C@H]1CCCC[C@@H]1Nc1cc(F)c(S(=O)(=O)NC(=O)c2cc(Cl)c(OCC3CCCC3)cc2F)c(F)c1` [Example 206, 5-chloro-4-(cyclopentylmethoxy)-N-((4-(((1S,2S)-2-(dimethylamino)-cyclohexyl)amino)-2,6-difluorophenyl)sulfonyl)-2-fluorobenzamide], the IC50 is 50 nM. Turning to `O=C(NS(=O)(=O)c1ccc(NC2CCCCC2)cc1F)c1cc(Cl)c(OCC2CCCC2)cc1F` [Example 208, 5-chloro-N-((4-(cyclohexylamino)-2-fluorophenyl)sulfonyl)-4-(cyclopentylmethoxy)-2-fluorobenzamide], the IC50 turned out to be 880 nM.

Turning to `COc1cc(COc2ccc(S(=O)(=O)NC(=O)c3cc(Cl)c(OCC4CCCC4)cc3F)cc2)cc(OC)c1` [Example 306, 5-chloro-4-(cyclopentylmethoxy)-N-((4-((3,5-dimethoxy-benzyl)oxy)phenyl)sulfonyl)-2-fluorobenzamide], the IC50 is 170 nM. Regarding `O=C(NS(=O)(=O)[C@@H]1C[C@H]1c1ccccc1)c1cc(Cl)c(OCC2CCCC2)cc1F` (relative stereo) [Example 284, 5-chloro-4-(cyclopentylmethoxy)-2-fluoro-N-((trans-2-phenylcyclopropyl)sulfonyl)benzamide], the IC50 came to 120 nM.
